This is an account of results in BindingDB's records for patent US9365558 (Bristol Myers Squibb, 2016).

For orientation: IC50 means the midpoint of a concentration-inhibition curve. Low readings indicate inhibition by little substance, high ones a need for much substance.

The experiment has as its target 2-acylglycerol O-acyltransferase 2 (Homo sapiens, UniProt Q3SYC2). The experiment is described as follows: LCMS Assay. Conditions: pH 7.4; 65 °C. The procedure:
The MGAT enzyme reactions were performed in Corning FALCON® 96-well Polypropylene plates, in a total volume of 60 μL of 50 mM Potassium Phosphate buffer pH 7.4, containing a final concentration of 100 μM 2-oleoylglycerol, 15 μM oleoyl-Coenzyme A and 0.0013 μg/μL Human or Mouse MGAT-2 or 0.0026 μg/μL Rat recombinant MGAT-2 membranes expressed in Sf9 cells. Assay plates were run through a fully automated robotics system and shaken for 5 seconds every minute for a total 10 minutes. The reactions were then quenched with 120 μL of ice cold methanol containing 1 μg/mL 1,2-distearoyl-rac-glycerol as the internal standard. Plates were shaken for 2 minutes and spun down to remove protein precipitation. After the spin, samples were transferred to LC/MS compatible PCR plates. For LC/MS analysis, a ThermoFisher Surveyor pump, utilizing a Waters Symmetry C8, 50×2.1 mm column, was used for the chromatography of enzyme products. The buffer system consists of 0.1% formic acid in water with a mobile phase consisting 0.1% formic acid in methanol. The shallow gradient is 90-100% mobile phase in 0.2 min with a total run time of 2.3 min. The first 0.5 minutes of each injection was diverted to waste to eliminate the presence of Phosphate buffer in the enzymatic reaction. The column was run at 0.6 mL/min and a temperature of 65° C.

Chain of 2-acylglycerol O-acyltransferase 2 (Q3SYC2 whole entry): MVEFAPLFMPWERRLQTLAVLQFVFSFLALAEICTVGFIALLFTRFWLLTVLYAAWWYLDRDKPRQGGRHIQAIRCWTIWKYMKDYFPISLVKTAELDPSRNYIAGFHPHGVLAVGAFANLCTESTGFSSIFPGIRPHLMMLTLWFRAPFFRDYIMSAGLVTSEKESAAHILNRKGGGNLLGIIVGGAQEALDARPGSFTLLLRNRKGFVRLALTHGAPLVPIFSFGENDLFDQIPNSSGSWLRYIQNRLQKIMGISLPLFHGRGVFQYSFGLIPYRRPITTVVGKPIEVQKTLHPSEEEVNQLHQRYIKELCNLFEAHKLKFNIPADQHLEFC

On to `CC(C)(C)n1ccc(C2=C(C(=O)NS(=O)(=O)C3CC3)C(=O)N[C@@](c3ccc(OCCCCCC(F)(F)F)cc3)(C(F)(F)F)C2)n1` [US9365558, 80], for which half-maximal inhibition (IC50) required 40 nM.
For `Cc1ccc(C2=C(C(=O)NS(=O)(=O)N(C)C)C(=O)N[C@@](c3ccc(OCCCC(F)(F)F)cc3)(C(F)(F)F)C2)cc1` [US9365558, 31], the IC50 was found to be 38 nM.
